Data published in PubChem BioAssay AID1745844 (Carcinogenic Potency Database (CPDB), 2022).
Activity calls are given as the source filed them. The rule behind the calls is not given here. Peptide text beside a SMILES is read from it.

Test system: rodent lifetime carcinogenesis bioassay, tumor incidence TD50
Assay: chronic cancer bioassays in animals – CPDB, compiled studies (AID 1745844)

## O=S(=O)(O)O
hamster, strain Syrian Golden, females, in drinking water, site: cecum, lesion: one or several types, types not named, dosed 108 weeks, study length 108 weeks
  TD50: 115 mg/kg/day (inactive)
hamster, strain Syrian Golden, females, in drinking water, site: thyroid gland, lesion: adenoma, dosed 108 weeks, study length 108 weeks
  TD50: 124 mg/kg/day (inactive)
hamster, strain Syrian Golden, males, in drinking water, site: cecum, lesion: one or several types, types not named, dosed 119 weeks, study length 119 weeks
  TD50: 136 mg/kg/day (inactive)
hamster, strain Syrian Golden, males, in drinking water, site: liver, lesion: hemangioma, dosed 119 weeks, study length 119 weeks
  carcinogen call: negative (inactive)
hamster, strain Syrian Golden, males, in drinking water, site: liver, lesion: hepatocellular adenoma, dosed 91 weeks, study length 91 weeks
  TD50: 87.5 mg/kg/day
hamster, strain Syrian Golden, males, in drinking water, site: liver, lesion: hepatocellular adenoma, dosed 104 weeks, study length 104 weeks
  TD50: 2590 mg/kg/day
hamster, strain Syrian Golden, males, in drinking water, site: liver, lesion: hepatocellular carcinoma, dosed 91 weeks, study length 91 weeks
  TD50: 464 mg/kg/day
hamster, strain Syrian Golden, males, in drinking water, site: liver, lesion: hepatocellular carcinoma, dosed 104 weeks, study length 104 weeks
  TD50: 181 mg/kg/day
hamster, strain Syrian Golden, males, in drinking water, site: liver, lesion: histiocytoma, malignant, dosed 104 weeks, study length 104 weeks
  TD50: 2580 mg/kg/day
hamster, strain Syrian Golden, males, in drinking water, site: liver, lesion: reticulum-cell sarcoma, dosed 104 weeks, study length 104 weeks
  TD50: 2590 mg/kg/day
hamster, strain Syrian Golden, males, in drinking water, site: liver, lesion: several types, types named in the paper, dosed 91 weeks, study length 91 weeks
  TD50: 87.5 mg/kg/day
mouse, strain AKR, females, in drinking water, site: liver, lesion: one or several types, types not named, dosed 69 weeks, study length 69 weeks
  carcinogen call: negative (inactive)
mouse, strain AKR, females, in drinking water, site: lung, lesion: one or several types, types not named, dosed 69 weeks, study length 69 weeks
  carcinogen call: negative (inactive)
mouse, strain AKR, males, in drinking water, site: liver, lesion: hemangioma, dosed 69 weeks, study length 69 weeks
  carcinogen call: negative (inactive)
mouse, strain AKR, males, in drinking water, site: lung, lesion: adenoma, dosed 69 weeks, study length 69 weeks
  carcinogen call: negative (inactive)
mouse, strain C3H (MTV+), females, in drinking water, site: lung, lesion: adenoma, dosed 92 weeks, study length 92 weeks
  TD50: 109 mg/kg/day
mouse, strain CBA/Cb/Se, females, by gavage, site: liver, lesion: hepatoma, dosed 36 weeks, study length 74 weeks
  TD50: 6.27 mg/kg/day
mouse, strain CBA/Cb/Se, females, by gavage, site: lung, lesion: several types, types named in the paper, dosed 36 weeks, study length 74 weeks
  TD50: 3.35 mg/kg/day
mouse, strain CBA/Cb/Se, males, by gavage, site: liver, lesion: hepatoma, dosed 36 weeks, study length 84 weeks
  TD50: 8.43 mg/kg/day
mouse, strain CBA/Cb/Se, males, by gavage, site: lung, lesion: several types, types named in the paper, dosed 36 weeks, study length 84 weeks
  TD50: 5.1 mg/kg/day
mouse, strain ICRC x C3H (Jax), females, by gavage, site: liver, lesion: one or several types, types not named, dosed 73 weeks, study length 73 weeks
  carcinogen call: negative (inactive)
mouse, strain ICRC x C3H (Jax), females, by gavage, site: lung, lesion: adenocarcinoma, dosed 73 weeks, study length 73 weeks
  TD50: 10.3 mg/kg/day
mouse, strain ICRC x C3H (Jax), males, by gavage, site: liver, lesion: one or several types, types not named, dosed 73 weeks, study length 73 weeks
  carcinogen call: negative (inactive)
mouse, strain ICRC x C3H (Jax), males, by gavage, site: lung, lesion: adenocarcinoma, dosed 73 weeks, study length 73 weeks
  TD50: 79.5 mg/kg/day
mouse, strain Swiss albino, females, in drinking water, site: liver, lesion: hemangioma, dosed 95 weeks, study length 95 weeks
  carcinogen call: negative (inactive)
mouse, strain Swiss albino, females, in drinking water, site: lung, lesion: adenocarcinoma, dosed 95 weeks, study length 95 weeks
  TD50: 146 mg/kg/day
mouse, strain Swiss albino, females, in drinking water, site: lung, lesion: adenoma, dosed 95 weeks, study length 95 weeks
  TD50: 26.7 mg/kg/day
mouse, strain Swiss albino, females, in drinking water, site: lung, lesion: several types, types named in the paper, dosed 95 weeks, study length 95 weeks
  TD50: 23.8 mg/kg/day
mouse, strain Swiss albino, males, in drinking water, site: liver, lesion: several types, types named in the paper, dosed 94 weeks, study length 94 weeks
  TD50: 78.4 mg/kg/day
mouse, strain Swiss albino, males, in drinking water, site: lung, lesion: adenocarcinoma, dosed 94 weeks, study length 94 weeks
  TD50: 74.2 mg/kg/day
mouse, strain Swiss albino, males, in drinking water, site: lung, lesion: adenoma, dosed 94 weeks, study length 94 weeks
  TD50: 23.1 mg/kg/day
mouse, strain Swiss albino, males, in drinking water, site: lung, lesion: several types, types named in the paper, dosed 94 weeks, study length 94 weeks
  TD50: 18.7 mg/kg/day
mouse, strain Swiss, both sexes, by gavage, site: lung, lesion: adenocarcinoma, dosed 95 weeks, study length 95 weeks
  TD50: 9.81 mg/kg/day
mouse, strain Swiss, both sexes, by gavage, site: lung, lesion: one or several types, types not named, dosed 54 weeks, study length 54 weeks
  TD50: 3.92 mg/kg/day
rat, strain Cb/Sc, females, by gavage, site: lung, lesion: several types, types named in the paper, dosed 68 weeks, study length 94 weeks
  TD50: 42.4 mg/kg/day
rat, strain Cb/Sc, males, by gavage, site: liver, lesion: several types, types named in the paper, dosed 68 weeks, study length 94 weeks
  TD50: 39.4 mg/kg/day
rat, strain Cb/Sc, males, by gavage, site: lung, lesion: several types, types named in the paper, dosed 68 weeks, study length 94 weeks
  TD50: 60.1 mg/kg/day

## O=C1c2ccccc2-c2ccc3c4c(ccc1c24)-c1ccccc1C3=O
mouse, strain B6C3F1, females, in feed, site: any site (literature study), lesion: several types, types named in the paper, dosed 106 weeks, study length 106 weeks
  carcinogen call: negative (inactive)
mouse, strain B6C3F1, females, in feed, site: liver, lesion: hepatocellular adenoma + hepatocellular carcinoma + neoplastic nodule, dosed 106 weeks, study length 106 weeks
  TD50: 23900 mg/kg/day
mouse, strain B6C3F1, males, in feed, site: all sites, lesion: lymphoma, dosed 106 weeks, study length 106 weeks
  TD50: 10900 mg/kg/day
mouse, strain B6C3F1, males, in feed, site: any site (literature study), lesion: several types, types named in the paper, dosed 106 weeks, study length 106 weeks
  TD50: 4410 mg/kg/day
mouse, strain B6C3F1, males, in feed, site: liver, lesion: hepatocellular adenoma + hepatocellular carcinoma + neoplastic nodule, dosed 106 weeks, study length 106 weeks
  TD50: 8610 mg/kg/day
mouse, strain B6C3F1, males, in feed, site: lung, lesion: alveolar/bronchiolar adenoma + alveolar/bronchiolar carcinoma, dosed 106 weeks, study length 106 weeks
  TD50: 19100 mg/kg/day
rat, strain Fischer 344, females, in feed, site: any site (literature study), lesion: several types, types named in the paper, dosed 104 weeks, study length 104 weeks
  carcinogen call: negative (inactive)
rat, strain Fischer 344, males, in feed, site: any site (literature study), lesion: several types, types named in the paper, dosed 104 weeks, study length 104 weeks
  TD50: 787 mg/kg/day (inactive)
rat, strain Fischer 344, males, in feed, site: liver, lesion: hepatocellular adenoma + hepatocellular carcinoma + neoplastic nodule, dosed 104 weeks, study length 104 weeks
  TD50: 2790 mg/kg/day

## COC(=O)[C@H](Cc1ccccc1)NC(=O)[C@@H](N)CC(=O)O (H-Asp-Phe-OMe)
rat, strain Charles River CD (Sprague-Dawley), females, in feed, site: any site (literature study), lesion: several types, types named in the paper, dosed 104 weeks, study length 104 weeks
  carcinogen call: negative (inactive)
rat, strain Charles River CD (Sprague-Dawley), females, in feed, site: brain, lesion: several types, types named in the paper, dosed 104 weeks, study length 104 weeks
  TD50: 118000 mg/kg/day (inactive)
rat, strain Charles River CD (Sprague-Dawley), females, in feed, site: liver, lesion: hepatoma, benign, dosed 104 weeks, study length 104 weeks
  carcinogen call: negative (inactive)
rat, strain Charles River CD (Sprague-Dawley), males, in feed, site: any site (literature study), lesion: several types, types named in the paper, dosed 104 weeks, study length 104 weeks
  carcinogen call: negative (inactive)
rat, strain Charles River CD (Sprague-Dawley), males, in feed, site: brain, lesion: several types, types named in the paper, dosed 104 weeks, study length 104 weeks
  TD50: 666000 mg/kg/day (inactive)
rat, strain Charles River CD (Sprague-Dawley), males, in feed, site: liver, lesion: hepatoma, benign, dosed 104 weeks, study length 104 weeks
  TD50: 1.3e+06 mg/kg/day (inactive)
rat, strain Slc-Wistar, females, in feed, site: brain, lesion: several types, types named in the paper, dosed 104 weeks, study length 104 weeks
  carcinogen call: negative (inactive)
rat, strain Slc-Wistar, males, in feed, site: brain, lesion: several types, types named in the paper, dosed 104 weeks, study length 104 weeks
  TD50: 186000 mg/kg/day (inactive)

## CCCCC/C=N/N(C)C=O
mouse, strain Swiss, females, by gavage, site: liver, lesion: hepatocellular carcinoma, dosed 52 weeks, study length 122 weeks
  TD50: 180 mg/kg/day
mouse, strain Swiss, females, by gavage, site: liver, lesion: hepatoma, benign, dosed 52 weeks, study length 122 weeks
  TD50: 23.3 mg/kg/day
mouse, strain Swiss, females, by gavage, site: liver, lesion: several types, types named in the paper, dosed 52 weeks, study length 122 weeks
  TD50: 19.9 mg/kg/day
mouse, strain Swiss, females, by gavage, site: lung, lesion: adenocarcinoma, dosed 52 weeks, study length 122 weeks
  TD50: 8.73 mg/kg/day
mouse, strain Swiss, females, by gavage, site: lung, lesion: adenoma, dosed 52 weeks, study length 122 weeks
  TD50: 4.68 mg/kg/day
mouse, strain Swiss, females, by gavage, site: lung, lesion: several types, types named in the paper, dosed 52 weeks, study length 122 weeks
  TD50: 2.96 mg/kg/day
mouse, strain Swiss, males, by gavage, site: liver, lesion: hepatocellular carcinoma, dosed 52 weeks, study length 128 weeks
  TD50: 115 mg/kg/day
mouse, strain Swiss, males, by gavage, site: liver, lesion: hepatoma, benign, dosed 52 weeks, study length 128 weeks
  TD50: 45.4 mg/kg/day
mouse, strain Swiss, males, by gavage, site: liver, lesion: several types, types named in the paper, dosed 52 weeks, study length 128 weeks
  TD50: 31.4 mg/kg/day
mouse, strain Swiss, males, by gavage, site: lung, lesion: adenocarcinoma, dosed 52 weeks, study length 128 weeks
  TD50: 5.52 mg/kg/day
mouse, strain Swiss, males, by gavage, site: lung, lesion: adenoma, dosed 52 weeks, study length 128 weeks
  TD50: 6.63 mg/kg/day
mouse, strain Swiss, males, by gavage, site: lung, lesion: several types, types named in the paper, dosed 52 weeks, study length 128 weeks
  TD50: 1.92 mg/kg/day
mouse, strain Swiss, males, by gavage, site: preputial gland, lesion: several types, types named in the paper, dosed 52 weeks, study length 128 weeks
  TD50: 6.51 mg/kg/day
mouse, strain Swiss, males, by gavage, site: preputial gland, lesion: squamous-cell carcinoma, dosed 52 weeks, study length 128 weeks
  TD50: 8.03 mg/kg/day
mouse, strain Swiss, males, by gavage, site: preputial gland, lesion: squamous-cell papilloma, dosed 52 weeks, study length 128 weeks
  TD50: 93.3 mg/kg/day

## Clc1ccc(Sc2cc(Cl)c(Cl)cc2Cl)cc1
rat, strain Wistar, females, in feed, site: liver, lesion: one or several types, types not named, dosed 104 weeks, study length 104 weeks
  carcinogen call: negative (inactive)
rat, strain Wistar, females, in feed, site: liver, lesion: one or several types, types not named, dosed 116 weeks, study length 116 weeks
  carcinogen call: negative (inactive)
rat, strain Wistar, males, in feed, site: liver, lesion: hepatoma, dosed 116 weeks, study length 116 weeks
  TD50: 4590 mg/kg/day (inactive)
rat, strain Wistar, males, in feed, site: liver, lesion: one or several types, types not named, dosed 104 weeks, study length 104 weeks
  carcinogen call: negative (inactive)

## CC[N+]([O-])=NC
rat, strain Fischer 344, males, in drinking water, site: colon, lesion: several types, types named in the paper, dosed 30 weeks, study length 55 weeks
  TD50: 0.125 mg/kg/day
rat, strain Fischer 344, males, in drinking water, site: ileum, lesion: one or several types, types not named, dosed 30 weeks, study length 55 weeks
  TD50: 0.221 mg/kg/day
rat, strain Fischer 344, males, in drinking water, site: liver, lesion: hemangiosarcoma, dosed 30 weeks, study length 55 weeks
  TD50: 0.0391 mg/kg/day
rat, strain Fischer 344, males, in drinking water, site: liver, lesion: hepatocellular carcinoma, dosed 30 weeks, study length 55 weeks
  TD50: 0.0189 mg/kg/day
rat, strain Fischer 344, males, in drinking water, site: liver, lesion: neurosarcoma, dosed 30 weeks, study length 55 weeks
  TD50: 0.0832 mg/kg/day
rat, strain Fischer 344, males, in drinking water, site: liver, lesion: several types, types named in the paper, dosed 30 weeks, study length 55 weeks
  carcinogen call: positive

## Nc1ccc(-c2ccccc2)cc1O
rat, strain Not specified, females, in feed, site: liver, lesion: one or several types, types not named, dosed 43 weeks, study length 65 weeks
  carcinogen call: negative (inactive)
